Assay results reported in patent publication US20180099961A1, “PROTEIN KINASE INHIBITORS” (Princeton Drug Discovery Inc, priority 2016, published 2018).
Read-outs that look alike come from different tables or passages of the source.

Tests used:
[1] = system: RAF1; assay: Off-chip Mobility Shift Assay; type: biochemical
[2] = Metabolic stability in human liver microsomes; type: in vitro ADME; details: for microsomal CLint at 1 μM / half-life at 1 μM: human, liver microsomes, human liver microsomes 0.5 mg/mL, NADPH and UDPGA, 37° C.; for microsomal CLint at 1 μM: read-out: CLint (intrinsic clearance); for half-life at 1 μM: read-out: In vitro t1/2; for metabolic stability as compared to dasatinib: human liver microsomes
Description: FIG. 1. Metabolic stability of compounds in human liver microsomal incubations. […] Concentrations at specified times were determined by LC-MS/MS.
The incubation reactions at various time points were quenched by adding 2× volumes of acetonitrile containing 100 nM reserpine. The quenched incubation samples were centrifuged at 4000 RPM for 10 min, and the supernatants injected for LC/MS/MS analysis. LC/MS/MS analysis was carried out on a AB Sciex 4000 Q Trap LC/MS/MS system coupled with Shimadzu Prominence UFLCXR 20 series (including a CBM-20A controller, two LC-20ADXR solvent delivery units, SIL-20AC HT autosampler, CTO-20A column oven, and a SPD-20A UV detector).

[3] = target: T1, BTK (Homo sapiens, UniProt Q06187); assay: Off-chip Mobility Shift Assay; type: biochemical; details: read-out: IC50, recombinant BTK activity
T1 construct: purchased Carna Biosciences

[4] = Pharmacokinetics in Sprague-Dawley rats, 2-in-1 dosing; type: in vivo; details: for clearance / Vd / AUC(0-inf) / AUC(0-t) / half-life / bioavailability / Cmax / Tmax: Sprague-Dawley, rat; for clearance / Vd / AUC(0-inf) / AUC(0-t) / half-life / bioavailability: plasma; for clearance: read-out: CL (plasma clearance) (converted); for Vd: read-out: V (volume of distribution); for AUC(0-inf) / AUC(0-t) / half-life / Cmax / Tmax: single dose; for bioavailability: read-out: F (percent oral bioavailability); for intravenous plasma clearance compared to dasatinib and compound III / intravenous volume of distribution compared to dasatinib and compound III: Sprague-Dawley rats
Description: Sprague-Dawley rats (approximate weight 275-300 g, N=3) were dosed intravenously at 5 mL/kg and orally at 10 mL/kg with the above dosing solutions. Blood samples were collected into tubes containing EDTA as the anticoagulant at 0, 0.25 (intravenous only), 0.5, 1, 2, 4, 8, 10, and 24 h post-dosing, and plasma samples were prepared by centrifugation. The plasma samples were mixed with 3× volumes of acetonitrile containing 100 nM reserpine as the internal standard, and centrifuged at 4000 RPM for 15 min. The supernatants were injected for LC/MS analysis which were carried out on a AB Sciex 4000 Q Trap LC/MS/MS system coupled with Shimadzu Prominence UFLCXR 20 series (including a CBM-20A controller, two LC-20ADXR solvent delivery units, SIL-20AC HT autosampler, CTO-20A column oven, and a SPD-20A UV detector). The samples were separated on a Phenomenex Columbus column (C18, 4 μm, 50×2 mm) eluted with two solvent systems: 2 mM ammonium acetate in water containing 0.1% formic acid (A) and methanol (B) at a linear gradient starting with 25% B. Electrospray ionization in positive mode was used to acquire LC/MS/MS data.

[5] = iv, 1 mg/kg, intravenous 1 mg/kg, single dose (Table 2)
[6] = iv, 1 mg/kg, intravenous 1 mg/kg, single dose (Table 3)
[7] = iv, 1 mg/kg, intravenous 1 mg/kg, plasma (Table 2)
[8] = iv, 1 mg/kg, intravenous 1 mg/kg, plasma (Table 2), read-out: t1/2 (converted)
[9] = iv, 1 mg/kg, intravenous 1 mg/kg, plasma (Table 3)
[10] = iv, 1 mg/kg, intravenous 1 mg/kg, plasma (Table 3), read-out: t½ (converted)
[11] = po, 2.5 mg/kg, PO 2.5 mg/kg, plasma (Table 2)
[12] = po, 2.5 mg/kg, PO 2.5 mg/kg, plasma (Table 2), read-out: t1/2 (converted)
[13] = po, 5 mg/kg, PO 5 mg/kg, plasma (Table 3)
[14] = po, 5 mg/kg, PO 5 mg/kg, plasma (Table 3), read-out: t½ (converted)
[15] = PO 2.5 mg/kg versus intravenous 1 mg/kg, AUCinf dose normalized (Table 2)

T1 sequence (Q06187 whole entry): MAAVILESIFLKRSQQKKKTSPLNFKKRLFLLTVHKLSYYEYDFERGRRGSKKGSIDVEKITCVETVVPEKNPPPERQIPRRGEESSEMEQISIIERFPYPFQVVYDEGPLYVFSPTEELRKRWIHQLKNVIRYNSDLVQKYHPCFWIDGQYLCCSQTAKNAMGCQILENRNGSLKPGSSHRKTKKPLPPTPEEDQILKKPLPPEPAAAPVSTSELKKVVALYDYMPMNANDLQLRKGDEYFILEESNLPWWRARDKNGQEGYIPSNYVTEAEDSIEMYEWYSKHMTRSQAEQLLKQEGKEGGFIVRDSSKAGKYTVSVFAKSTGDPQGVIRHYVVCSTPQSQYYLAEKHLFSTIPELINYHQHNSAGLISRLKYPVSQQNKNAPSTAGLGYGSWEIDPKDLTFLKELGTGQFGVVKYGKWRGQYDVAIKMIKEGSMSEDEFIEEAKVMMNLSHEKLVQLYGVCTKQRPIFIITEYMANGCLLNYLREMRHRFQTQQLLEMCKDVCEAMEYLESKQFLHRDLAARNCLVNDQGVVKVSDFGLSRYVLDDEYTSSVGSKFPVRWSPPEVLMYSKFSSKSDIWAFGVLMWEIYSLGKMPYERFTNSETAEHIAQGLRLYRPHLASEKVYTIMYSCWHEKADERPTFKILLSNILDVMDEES

| Compound | microsomal CLint at 1 μM [2] | half-life at 1 μM [2] | clearance [4, 5] | Vd [4, 5] | AUC(0-inf) [4, 7] | AUC(0-t) [4, 7] | half-life [4, 8] | AUC(0-inf) [4, 11] | AUC(0-t) [4, 11] | half-life [4, 12] | bioavailability [4, 15] | Cmax ([4]; PO 2.5 mg/kg, plasma (Table 2)) | Tmax ([4]; PO 2.5 mg/kg, plasma (Table 2)) | metabolic stability as compared to dasatinib [2] | further results |
| --- | --- | --- | --- | --- | --- | --- | --- | --- | --- | --- | --- | --- | --- | --- | --- |
| [2H]c1cc(C)c(NC(=O)c2cnc(Nc3cc(N4CCC(O)CC4)nc(C)n3)s2)c(Cl)c1 [Compound II, N-(2-chloro-4-deuterio-6-methyl-phenyl)-2-[[6-(4-hydroxy-1-piperidyl)-2-methyl-pyrimidin-4-yl]amino]thiazole-5-carboxamide] | 44 µL/min/mg | 0.533 h | – | – | – | – | – | – | – | – | – | – | – | – | inhibition of RAF1 ([1]; 1 nM): < 50%; inhibition of RAF1 ([1]; 10 nM): < 50%; inhibition of RAF1 ([1]; 100 nM): < 50%; IC50 [3]: < 1 nM |
| Cc1nc(Nc2ncc(C(=O)Nc3c(C)cccc3Cl)s2)cc(N2CCN(CCO)CC2)n1 [Dasatinib, reference compound] | – | – | 21.3 mL/min/kg | 3 L/kg | 784 ± 54 ng·h/mL | 783 ± 54 ng·h/mL | 1.5 h | 196 ± 85 ng·h/mL | 193 ± 86 ng·h/mL | 3.5 ± 0.5 h | 9.8 ± 3.6% | 15 ± 5 ng/mL | 5.5 ± 4.3 h | – | clearance [4, 6]: 16.5 mL/min/kg; Vd [4, 6]: 2 L/kg; AUC(0-inf) [4, 9]: 1010 ± 68 ng·h/mL; AUC(0-t) [4, 9]: 1010 ± 68 ng·h/mL; half-life [4, 10]: 1.7 ± 0.3 h; AUC(0-inf) [4, 13]: 97 ± 22 ng·h/mL; AUC(0-t) [4, 13]: 93 ± 23 ng·h/mL; half-life [4, 14]: 5.9 ± 1.5 h; Cmax ([4]; PO 5 mg/kg, plasma (Table 3)): 7 ± 7 ng/mL; Tmax ([4]; PO 5 mg/kg, plasma (Table 3)): 0.5 h |
| Cc1nc(Nc2ncc(C(=O)Nc3c(C)cccc3Cl)s2)cc(N2CCCCC2)n1 [Compound VIII, N-(2-chloro-6-methylphenyl)-2-[[2-methyl-6-(piperidin-1-yl)pyrimidin-4-yl]amino]thiazole-5-carboxamide] | – | – | – | – | – | – | – | – | – | – | – | – | – | significantly greater stability | – |
| [2H]c1cc(C)c(NC(=O)c2cnc(Nc3cc(N4CC[C@@H](O)C4)nc(C)n3)s2)c(Cl)c1 [Compound V, N-(2-chloro-4-deutero-6-methylphenyl)-2-[[2-methyl-6-((R)-3-hydroxypyrrolidin-1-yl)pyrimidin-4-yl]amino]thiazole-5-carboxamide] | < 24 µL/min/mg | > 0.983 h | 8.57 mL/min/kg | 1 L/kg | 1960 ± 214 ng·h/mL | 1960 ± 214 ng·h/mL | 1.4 ± 0.1 h | 539 ± 188 ng·h/mL | 524 ± 191 ng·h/mL | 4.4 ± 2.8 h | 11.1 ± 4.3% | 35 ± 19 ng/mL | 5.5 ± 4.3 h | significantly greater stability | intravenous plasma clearance compared to dasatinib and compound III [4]: much lower; intravenous volume of distribution compared to dasatinib and compound III [4]: significantly lower |
| [2H]c1cc(C)c(NC(=O)c2cnc(Nc3cc(N4CCN(CCO)CC4)nc(C)n3)s2)c(Cl)c1 [Compound III] | – | 0.4 h | 20.2 mL/min/kg | 3 L/kg | 835 ± 114 ng·h/mL | 835 ± 114 ng·h/mL | 1.6 ± 0.1 h | 144 ± 68 ng·h/mL | 139 ± 69 ng·h/mL | 4.7 ± 2.2 h | 7.2 ± 4.2% | 9 ± 6 ng/mL | 5.5 ± 4.3 h | – | clearance [4, 6]: 18.6 mL/min/kg; Vd [4, 6]: 3 L/kg; AUC(0-inf) [4, 9]: 917 ± 161 ng·h/mL; AUC(0-t) [4, 9]: 916 ± 161 ng·h/mL; half-life [4, 10]: 1.7 ± 0.2 h; AUC(0-inf) [4, 13]: 137 ± 20 ng·h/mL; AUC(0-t) [4, 13]: 124 ± 26 ng·h/mL; half-life [4, 14]: 8.2 ± 4.1 h; bioavailability ([4]; PO 5 mg/kg versus intravenous 1 mg/kg, AUCinf dose normalized (Table 3)): 6 ± 0.9%; Cmax ([4]; PO 5 mg/kg, plasma (Table 3)): 11 ± 11 ng/mL; Tmax ([4]; PO 5 mg/kg, plasma (Table 3)): 0.5 h |
| [2H]c1cc(C)c(NC(=O)c2cnc(Nc3cc(N4CC[C@@H](N)C4)nc(C)n3)s2)c(Cl)c1 [Compound VII, N-(2-chloro-4-deutero-6-methylphenyl)-2-[[2-methyl-6-((R)-3-aminopyrrolidin-1-yl)pyrimidin-4-yl]amino]thiazole-5-carboxamide] | – | – | – | – | – | – | – | – | – | – | – | – | – | significantly greater stability | – |
| Cc1nc(Nc2ncc(C(=O)Nc3c(C)cccc3Cl)s2)cc(N2CC[C@H](N)C2)n1 [Compound XII, N-(2-chloro-6-methylphenyl)-2-[[2-methyl-6-((S)-3-aminopyrrolidin-1-yl)pyrimidin-4-yl]amino]thiazole-5-carboxamide] | – | – | – | – | – | – | – | – | – | – | – | – | – | significantly greater stability | – |
| Cc1nc(Nc2ncc(C(=O)Nc3c(C)cccc3Cl)s2)cc(N2CC[C@@H](N)C2)n1 [Compound XIII, N-(2-chloro-6-methylphenyl)-2-[[2-methyl-6-((R)-3-aminopyrrolidin-1-yl)pyrimidin-4-yl]amino]thiazole-5-carboxamide] | – | – | – | – | – | – | – | – | – | – | – | – | – | significantly greater stability | – |
| Cc1nc(Nc2ncc(C(=O)Nc3c(C)cccc3Cl)s2)cc(N2CCC(O)CC2)n1 [Compound IX, N-(2-chloro-6-methylphenyl)-2-[[2-methyl-6-(4-hydroxypiperidin-1-yl)pyrimidin-4-yl]amino]thiazole-5-carboxamide] | 56 µL/min/mg | 0.417 h | – | – | – | – | – | – | – | – | – | – | – | – | – |
| [2H]c1cc(C)c(NC(=O)c2cnc(Nc3cc(N4CC[C@H](O)C4)nc(C)n3)s2)c(Cl)c1 [Compound IV, N-(2-chloro-4-deutero-6-methylphenyl)-2-[[2-methyl-6-((S)-3-hydroxypyrrolidin-1-yl)pyrimidin-4-yl]amino]thiazole-5-carboxamide] | < 24 µL/min/mg | > 0.983 h | 8.92 mL/min/kg | 1 L/kg | 1880 ± 153 ng·h/mL | 1880 ± 152 ng·h/mL | 1.4 ± 0.1 h | 892 ± 341 ng·h/mL | 891 ± 341 ng·h/mL | 2.3 ± 0.2 h | 18.9 ± 6.7% | 82 ± 13 ng/mL | 5.5 ± 4.3 h | significantly greater stability | intravenous plasma clearance compared to dasatinib and compound III [4]: much lower; intravenous volume of distribution compared to dasatinib and compound III [4]: significantly lower |
| [2H]c1cc(C)c(NC(=O)c2cnc(Nc3cc(N4CC[C@H](N)C4)nc(C)n3)s2)c(Cl)c1 [Compound VI, N-(2-chloro-4-dutero-6-methylphenyl)-2-[[2-methyl-6-((S)-3-aminopyrrolidin-1-yl)pyrimidin-4-yl]amino]thiazole-5-carboxamide] | – | – | – | – | – | – | – | – | – | – | – | – | – | significantly greater stability | – |
